Reference: ChEMBL document CHEMBL3259572, “Euodenine A: a small-molecule agonist of human TLR4” (J Med Chem, 2014)
Calls of active or inactive are those of the source. The rule behind the calls is not given here.

What was measured:
Toll-like receptor 4 [1] = target: T1, Toll-like receptor 4 (Homo sapiens, UniProt O00206); assay: Agonist activity at human recombinant TLR4 expressed in HEK293 cells by SEAP reporter assay; format: cell-based
TLR2/TLR6 (Homo sapiens) = TLR2/TLR6 (Homo sapiens) (UniProt O60603+Q9Y2C9); assay: Agonist activity at human recombinant TLR2/6 expressed in HEK293 cells at 10 uM by SEAP reporter assay; format: cell-based
[2] = Cytotoxicity against human PBMC by WST-1 cell proliferation assay; format: cell-based; conditions: PBMC (peripheral blood mononuclear cells)
[3] = target: Toll-like receptor 5 (Homo sapiens) (UniProt O60602); assay: Agonist activity at human recombinant TLR5 expressed in HEK293 cells at 10 uM by SEAP reporter assay; format: cell-based
Toll-like receptor 5 (Homo sapiens), sequence (O60602 whole entry): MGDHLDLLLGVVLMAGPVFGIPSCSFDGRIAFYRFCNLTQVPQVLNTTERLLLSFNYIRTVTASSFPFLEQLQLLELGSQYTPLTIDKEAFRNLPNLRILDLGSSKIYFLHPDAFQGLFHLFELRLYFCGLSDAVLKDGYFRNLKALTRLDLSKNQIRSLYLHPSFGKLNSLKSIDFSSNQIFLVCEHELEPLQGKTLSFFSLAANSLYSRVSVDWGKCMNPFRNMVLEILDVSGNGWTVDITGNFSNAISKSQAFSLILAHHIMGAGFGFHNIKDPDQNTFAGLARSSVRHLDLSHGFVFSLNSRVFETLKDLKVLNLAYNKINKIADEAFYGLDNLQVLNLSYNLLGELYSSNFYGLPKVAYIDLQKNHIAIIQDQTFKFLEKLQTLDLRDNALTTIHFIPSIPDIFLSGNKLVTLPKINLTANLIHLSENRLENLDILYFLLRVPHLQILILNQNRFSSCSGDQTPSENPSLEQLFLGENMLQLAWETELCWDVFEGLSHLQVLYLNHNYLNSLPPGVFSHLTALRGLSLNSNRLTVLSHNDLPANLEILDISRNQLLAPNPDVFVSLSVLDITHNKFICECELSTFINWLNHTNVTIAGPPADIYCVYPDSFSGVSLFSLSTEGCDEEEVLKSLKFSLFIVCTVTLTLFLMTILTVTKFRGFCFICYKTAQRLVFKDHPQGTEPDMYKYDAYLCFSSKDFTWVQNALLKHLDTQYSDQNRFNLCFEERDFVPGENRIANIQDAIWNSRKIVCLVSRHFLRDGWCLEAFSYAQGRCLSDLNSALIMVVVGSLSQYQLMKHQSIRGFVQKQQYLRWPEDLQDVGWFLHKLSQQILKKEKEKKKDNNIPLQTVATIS

[4] = target: T2, Toll-like receptor 7 (Homo sapiens) (UniProt Q9NYK1); assay: Agonist activity at human recombinant TLR7 expressed in HEK293 cells at 10 uM by SEAP reporter assay; format: cell-based
T2 sequence (whole entry): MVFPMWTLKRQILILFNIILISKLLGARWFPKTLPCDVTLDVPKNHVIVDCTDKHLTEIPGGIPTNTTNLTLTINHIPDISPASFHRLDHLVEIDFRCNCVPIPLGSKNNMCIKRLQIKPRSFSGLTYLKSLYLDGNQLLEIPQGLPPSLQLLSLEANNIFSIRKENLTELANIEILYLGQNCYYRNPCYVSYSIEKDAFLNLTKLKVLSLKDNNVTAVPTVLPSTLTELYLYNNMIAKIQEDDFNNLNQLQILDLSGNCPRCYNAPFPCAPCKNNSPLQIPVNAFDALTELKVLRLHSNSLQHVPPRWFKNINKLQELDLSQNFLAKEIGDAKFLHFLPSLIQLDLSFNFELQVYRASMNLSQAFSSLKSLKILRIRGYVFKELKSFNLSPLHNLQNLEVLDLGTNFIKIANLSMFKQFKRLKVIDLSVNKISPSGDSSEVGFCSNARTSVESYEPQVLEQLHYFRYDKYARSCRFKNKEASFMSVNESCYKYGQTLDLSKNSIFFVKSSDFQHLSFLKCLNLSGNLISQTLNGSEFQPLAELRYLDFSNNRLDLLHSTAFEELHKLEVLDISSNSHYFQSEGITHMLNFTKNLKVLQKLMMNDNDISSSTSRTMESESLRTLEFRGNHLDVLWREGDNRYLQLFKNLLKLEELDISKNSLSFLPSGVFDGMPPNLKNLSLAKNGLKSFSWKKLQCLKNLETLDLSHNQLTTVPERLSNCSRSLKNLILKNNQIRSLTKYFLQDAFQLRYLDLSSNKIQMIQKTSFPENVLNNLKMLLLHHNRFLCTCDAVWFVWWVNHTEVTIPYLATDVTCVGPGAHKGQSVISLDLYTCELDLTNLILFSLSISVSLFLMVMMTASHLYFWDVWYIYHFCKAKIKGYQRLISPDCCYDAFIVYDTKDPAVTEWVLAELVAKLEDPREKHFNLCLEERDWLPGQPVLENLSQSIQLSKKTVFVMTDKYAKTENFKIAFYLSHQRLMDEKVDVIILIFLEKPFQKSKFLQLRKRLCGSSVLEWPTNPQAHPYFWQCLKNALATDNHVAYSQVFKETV

Toll-like receptor 4 [5] = target: T1, Toll-like receptor 4; assay: Agonist activity at human recombinant TLR4 expressed in HEK293 cells coexpressed with human MD2 assessed as TNFalpha response by NFkappaB reporter assay; format: cell-based
Toll-like receptor 4 [6] = target: T1, Toll-like receptor 4; assay: Agonist activity at human recombinant TLR4 expressed in HEK293 cells coexpressed with mouse MD2 assessed as TNFalpha response by NFkappaB reporter assay; format: cell-based
PBMC [7] = assay: Induction of IL-12p40 production in human PBMC at 10 uM by ELISA; format: functional, cell-based
PBMC [8] = assay: Induction of TNFalpha production in human PBMC at 10 uM by ELISA; format: functional, cell-based
PBMC [9] = assay: Induction of IL-8 production in human PBMC at 10 uM by ELISA; format: functional, cell-based
PBMC [10] = assay: Suppression of PHA-induced IL-5 release in human PBMC at 10 uM by ELISA; format: functional, cell-based
Toll-like receptor 4 [11] = target: T1, Toll-like receptor 4; assay: Intrinsic activity at human recombinant TLR4 expressed in HEK293 cells by SEAP reporter assay relative to LPS; format: cell-based
[12] = target: Toll-like receptor 2 (Homo sapiens) (UniProt O60603); assay: Agonist activity at human recombinant TLR2 expressed in HEK293 cells by SEAP reporter assay; format: cell-based
Toll-like receptor 2 (Homo sapiens), sequence (O60603 whole entry): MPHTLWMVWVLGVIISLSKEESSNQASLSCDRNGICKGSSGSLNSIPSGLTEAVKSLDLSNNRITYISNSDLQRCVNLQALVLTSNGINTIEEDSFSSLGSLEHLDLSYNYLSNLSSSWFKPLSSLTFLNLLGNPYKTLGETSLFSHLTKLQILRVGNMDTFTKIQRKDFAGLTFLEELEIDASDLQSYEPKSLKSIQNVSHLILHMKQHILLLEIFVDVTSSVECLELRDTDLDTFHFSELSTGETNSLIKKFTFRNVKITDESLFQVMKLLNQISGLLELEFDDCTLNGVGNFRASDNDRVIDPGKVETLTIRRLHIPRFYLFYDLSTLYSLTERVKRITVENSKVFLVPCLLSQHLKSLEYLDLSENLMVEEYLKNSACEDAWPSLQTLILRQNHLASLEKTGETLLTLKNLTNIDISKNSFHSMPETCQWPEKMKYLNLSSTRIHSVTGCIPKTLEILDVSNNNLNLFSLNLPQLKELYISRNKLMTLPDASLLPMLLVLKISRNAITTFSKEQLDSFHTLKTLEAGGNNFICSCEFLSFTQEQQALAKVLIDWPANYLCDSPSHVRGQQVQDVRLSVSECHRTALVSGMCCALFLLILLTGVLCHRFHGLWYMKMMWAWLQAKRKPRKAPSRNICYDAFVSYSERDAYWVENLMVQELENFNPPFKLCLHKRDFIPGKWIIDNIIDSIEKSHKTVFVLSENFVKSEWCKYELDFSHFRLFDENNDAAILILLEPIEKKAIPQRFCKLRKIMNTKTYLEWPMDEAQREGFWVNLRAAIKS

T1 sequence (O00206 whole entry): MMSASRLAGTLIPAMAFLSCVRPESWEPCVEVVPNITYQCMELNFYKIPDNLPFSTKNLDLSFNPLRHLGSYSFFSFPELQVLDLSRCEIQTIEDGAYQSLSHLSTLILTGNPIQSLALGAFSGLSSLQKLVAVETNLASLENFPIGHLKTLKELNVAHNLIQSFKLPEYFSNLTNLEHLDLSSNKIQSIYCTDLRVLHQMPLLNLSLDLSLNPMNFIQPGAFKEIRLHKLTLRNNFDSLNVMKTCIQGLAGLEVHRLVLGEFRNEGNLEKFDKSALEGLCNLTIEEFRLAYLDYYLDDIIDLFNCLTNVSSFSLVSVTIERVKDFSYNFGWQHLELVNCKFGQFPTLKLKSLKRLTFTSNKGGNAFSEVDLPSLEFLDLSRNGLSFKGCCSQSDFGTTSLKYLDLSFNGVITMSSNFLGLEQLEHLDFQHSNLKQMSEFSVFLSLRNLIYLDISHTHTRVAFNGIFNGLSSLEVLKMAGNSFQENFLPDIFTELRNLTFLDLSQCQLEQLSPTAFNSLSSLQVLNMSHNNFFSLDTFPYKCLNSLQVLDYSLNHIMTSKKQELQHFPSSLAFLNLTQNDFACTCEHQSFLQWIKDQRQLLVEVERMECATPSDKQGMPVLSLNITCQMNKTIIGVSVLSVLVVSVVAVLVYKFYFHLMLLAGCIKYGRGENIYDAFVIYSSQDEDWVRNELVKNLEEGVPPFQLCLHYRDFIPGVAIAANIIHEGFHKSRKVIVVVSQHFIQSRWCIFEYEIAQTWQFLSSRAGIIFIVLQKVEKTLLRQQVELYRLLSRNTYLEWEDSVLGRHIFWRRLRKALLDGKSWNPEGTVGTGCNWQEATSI

EC50 (Toll-like receptor 4 [1]): 3.9 µM
Activity (TLR2/TLR6 (Homo sapiens)): inactive
Activity [3]: inactive
Activity [4]: inactive
Activity (Toll-like receptor 4 [5]): Active
Activity (Toll-like receptor 4 [6]): inactive
Intrinsic activity (Toll-like receptor 4 [11]): 0.95
Activity [12]: inactive
Compound: COc1cc([C@@H]2[C@@H](C)[C@H]3[C@@H]2c2c(c4ccccc4[nH]c2=O)OC3(C)C)cc(OC)c1OC
CC50 [2]: > 33 µM
Activity (PBMC [7]): Active
Activity (PBMC [8]): Active
Activity (PBMC [9]): Active
inhibition (PBMC [10]): Active
